Source: PMC8689651, “Chemical Mapping Exposes the Importance of Active Site Interactions in Governing the Temperature Dependence of Enzyme Turnover” (ACS Catalysis, 2021)

Target: T1, ssGDH (glucose dehydrogenase from Sulfolobus solfataricus) (Saccharolobus solfataricus, UniProt O93715)
T1 construct: gene gdh; full-length, recombinant from pET3a, heat step (70 °C), anion exchange and gel filtration, no tag mentioned; homotetramer; five Trp per monomer
Assay: steady-state NADPH formation at […] nm
Format: biochemical
Conditions: apparent substrate inhibition; co-substrate NADP+; 100 mM HEPES pH 8; temperature not stated with the value

T1 sequence (O93715 whole entry): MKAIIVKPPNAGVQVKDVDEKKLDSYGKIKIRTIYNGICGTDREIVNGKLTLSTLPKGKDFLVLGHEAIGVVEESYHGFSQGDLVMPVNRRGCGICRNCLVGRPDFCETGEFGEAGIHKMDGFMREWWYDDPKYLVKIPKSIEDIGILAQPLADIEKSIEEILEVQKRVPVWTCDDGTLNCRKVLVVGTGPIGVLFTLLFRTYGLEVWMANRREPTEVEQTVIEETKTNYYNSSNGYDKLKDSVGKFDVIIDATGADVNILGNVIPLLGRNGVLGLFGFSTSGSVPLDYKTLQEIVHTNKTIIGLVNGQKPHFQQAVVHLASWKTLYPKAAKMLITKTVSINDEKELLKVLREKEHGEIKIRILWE

**Q.** Which Ki does the source give for `OC[C@@H]1C[C@H](O)[C@@H](O)C(O)O1` (stereo partly drawn) [4-deoxy, 4-deoxy-D-glucose] here?
**A.** 29.5 ± 8.7 mM
